Measured values taken from patent publication US20240287046A1, “COMPOUNDS AND RADIOLIGANDS FOR TARGETING NEUROTENSIN RECEPTOR AND USES THEREOF” (Full-Life Technologies HK Limited, priority 2022, published 2024).
Values belong to the compound of their own block, whether it stands above or below them.

Columns and labels:
human NTSR-1 = human NTSR-1 (Homo sapiens (Human), UniProt P30989); assay: radioligand competitive binding assay using ^177Lu labeled C-1 as reference radioligand; conditions: for Relative Binding Affinity: Mean IC50 of C-1/Mean IC50 of the test compound
Protocol: The binding affinities of test compounds were determined by a radioligand competitive binding assay using ^177Lu labeled C-1 as the reference radioligand.
Briefly, 100 μL HT-29 cells expressing human NTSR-1 at a density of 1˜2×10^6 cells/mL were mixed with binding buffer (RPMI-1640 medium supplemented with 0.25% bovine serum albumin) in each well of the 96-well filter plate (Millipore). Then the cells in each well were incubated with ^177Lu—C-1 (0.55 μCi/well) and the test compound under 37° C. for 1 hr (n=3). After incubation, unbound ^177Lu—C-1 and the test compound in each well was removed by filtration using a Multiscreen vacuum manifold (Millipore) and the cells were further rinsed with the binding buffer for 5 times. The cells from each well were then collected and radioactivity of the cells in each well was individually measured by y counter (2480 WIZARD2, PerkinElmer). The best-fit IC50 value of test compounds (inhibitory concentration when 50% of the bound ^177Lu—C-1 on cells were displaced) were calculated by fitting the data with nonlinear regression using GraphPad Prism 8.0.1.

[1] = test system: ASPC-1 tumor-bearing mice; assay: Biodistribution of radionuclide labeled complexes in ASPC-1 tumor-bearing mice; assay type: in vivo, BALB/c nude mice
Protocol: The BALB/c nude mice (Charles River, Beijing) were utilized to establish the xenografted model for biodistribution study. All animal care and experimental procedure were performed by following the animal protocols approved by the ethics committee of China Institute of Radiation Protection.
Briefly, each mouse was inoculated with approximately 4×10^6 ASPC-1 cells (human pancreatic cancer cell line) or HT-29 cells (human colorectal adenocarcinoma cell line) expressing human NTSR-1 by subcutaneous injection at rear flank. After inoculation, the xenografted tumors were allowed to grow for ˜2-4 weeks till the tumor weight reached to about 0.05 to 0.50 g (0.20 g in average).
Biodistribution studies were performed by administrating the radionuclide labeled test compound at a dose of ˜30-50 μCi (100 μL in 0.9% NaCl, ˜1.11-1.85 MBq, with specific activity 30-250 μCi/nmol) to each animal through tail vein injection.
At different time points after the administration, the mice treated with each compound were euthanized. The tissues and organs of the animals in each group were collected, excised, weighed, and analyzed in a PerkinElmer 2480 WIZARD2γ counter, and the percent injected dose (% ID) and % ID/g of each organ or tissue were calculated.

Sequence of human NTSR-1 (P30989 whole entry): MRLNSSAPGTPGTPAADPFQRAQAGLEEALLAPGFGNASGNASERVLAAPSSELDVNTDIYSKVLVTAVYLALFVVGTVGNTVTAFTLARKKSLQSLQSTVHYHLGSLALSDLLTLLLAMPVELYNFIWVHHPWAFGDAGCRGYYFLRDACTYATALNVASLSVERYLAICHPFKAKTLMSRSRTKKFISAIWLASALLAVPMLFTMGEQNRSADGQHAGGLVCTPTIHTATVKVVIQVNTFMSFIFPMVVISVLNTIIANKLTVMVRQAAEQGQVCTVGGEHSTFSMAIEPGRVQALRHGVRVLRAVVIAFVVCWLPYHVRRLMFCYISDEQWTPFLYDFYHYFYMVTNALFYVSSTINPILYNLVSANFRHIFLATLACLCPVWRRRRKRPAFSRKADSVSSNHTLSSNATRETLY

Structure (SMILES): COc1cccc(OC)c1-c1cc(C(=O)NC2(C(=O)O)C3CC4CC(C3)CC2C4)nn1-c1ccc(N(C)CCCN(C)CCCN(C)C(=O)COCCOCCNC(=O)CN2CCN(CC(=O)O)CCN(CC(=O)O)CCN(CC(=O)O)CC2)cc1C(C)C (stereo not shown) [Compound I-4, 2,2′,2″-(10-(2-(4-(3-((2-carboxyadamantan-2-yl)carbamoyl)-5-(2,6-dimethoxyphenyl)-1H-pyrazol-1-yl)-3-isopropylphenyl)-6,10-dimethyl-11,20-dioxo-13,16-dioxa-2,6,10,19-tetraazahenicosan-21-yl)-1,4,7,10-tetraazacyclododecane-1,4,7-triyl)triacetic acid]
Relative Binding Affinity (human NTSR-1): 538.2

Structure (SMILES): COc1cccc(OC)c1-c1cc(C(=O)NC2(C(=O)O)C3CC4CC(C3)CC2C4)nn1-c1ccc(N(CCCN(C)C)C(=O)COCCOCCNC(=O)CN2CCN(CC(=O)O)CCN(CC(=O)O)CC2)cc1C(C)C (stereo not shown) [Compound I-13]
Relative Binding Affinity (human NTSR-1): 14.6

Structure (SMILES): COc1cccc(OC)c1-c1cc(C(=O)NC2(C(=O)O)C3CC4CC(C3)CC2C4)nn1-c1ccc(NCCCN(C)C)cc1C(C)C (stereo not shown) [II-1, 2-(5-(2,6-dimethoxyphenyl)-1-(4-((3-(dimethylamino)propyl)amino)-2-isopropylphenyl)-1H-pyrazole-3-carboxamido)adamantane-2-carboxylic acid]
Relative Binding Affinity (human NTSR-1): 107.6
improvement of potency vs SR142948 (C-3) (human NTSR-1; removal of the carbonyl group from the amide group): ≥ 10 fold

Continued, values first:

uptake ratio Tumor/Blood ([1]; 1 h): 4.7
uptake ratio Tumor/Kidney ([1]; 1 h): 17.2
uptake ratio Tumor/Liver ([1]; 1 h): 17.9
uptake ratio Tumor/Lung ([1]; 1 h): 9.0
uptake ratio Tumor/Blood ([1]; 4 h): 60.5
uptake ratio Tumor/Kidney ([1]; 4 h): 40.0
uptake ratio Tumor/Liver ([1]; 4 h): 16.6
uptake ratio Tumor/Lung ([1]; 4 h): 43.3
% ID/g (1 h) Blood ([1]; Blood, 1 h): 3.18 ± 0.24 % ID/g
% ID/g (4 h) Blood ([1]; Blood, 4 h): 0.22 ± 0.07 % ID/g
% ID/g (1 h) Femur ([1]; Femur, 1 h): 0.53 ± 0.04 % ID/g
% ID/g (4 h) Femur ([1]; Femur, 4 h): 0.13 ± 0.1 % ID/g
% ID/g (1 h) Heart ([1]; Heart, 1 h): 1.46 ± 0.24 % ID/g
% ID/g (4 h) Heart ([1]; Heart, 4 h): 0.16 ± 0.06 % ID/g
% ID/g (1 h) Intestine ([1]; Intestine, 1 h): 1.28 ± 0.11 % ID/g
% ID/g (4 h) Intestine ([1]; Intestine, 4 h): 0.42 ± 0.16 % ID/g
% ID/g (1 h) Kidney ([1]; Kidney, 1 h): 0.87 ± 0.05 % ID/g
% ID/g (4 h) Kidney ([1]; Kidney, 4 h): 0.33 ± 0.09 % ID/g
% ID/g (1 h) Liver ([1]; Liver, 1 h): 0.84 ± 0.43 % ID/g
% ID/g (4 h) Liver ([1]; Liver, 4 h): 0.79 ± 0.08 % ID/g
% ID/g (1 h) Lung ([1]; Lung, 1 h): 1.66 ± 0.93 % ID/g
% ID/g (4 h) Lung ([1]; Lung, 4 h): 0.3 ± 0.15 % ID/g
% ID/g (1 h) Muscle ([1]; Muscle, 1 h): 0.31 ± 0.05 % ID/g
% ID/g (4 h) Muscle ([1]; Muscle, 4 h): 0.06 ± 0.02 % ID/g
% ID/g (1 h) Pancreas ([1]; Pancreas, 1 h): 0.26 ± 0.05 % ID/g
% ID/g (4 h) Pancreas ([1]; Pancreas, 4 h): 0.06 ± 0.02 % ID/g
% ID/g (1 h) Spleen ([1]; Spleen, 1 h): 0.26 ± 0.05 % ID/g
% ID/g (4 h) Spleen ([1]; Spleen, 4 h): 0.08 ± 0.03 % ID/g
% ID/g (1 h) Stomach ([1]; Stomach, 1 h): 0.55 ± 0.13 % ID/g
% ID/g (4 h) Stomach ([1]; Stomach, 4 h): 0.4 ± 0.22 % ID/g
% ID/g (1 h) Tumor ([1]; Tumor, 1 h): 14.96 ± 6.57 % ID/g
% ID/g (4 h) Tumor ([1]; Tumor, 4 h): 13.06 ± 6.54 % ID/g
Structure (SMILES): COc1cccc(OC)c1-c1cc(C(=O)NC2(C(=O)O)C3CC4CC(C3)CC2C4)nn1-c1ccc(C(=O)N(CCCNC(=O)CN2CCN(CC(=O)[O-])CCN(CC(=O)[O-])CCN(CC(=O)[O-])CC2)CCCN(C)C)cc1C(C)C.[177Lu+3] (stereo not shown) [^177Lu-C-5, reference compound]

Relative Binding Affinity (human NTSR-1): 535.2
Structure (SMILES): COc1cccc(OC)c1-c1cc(C(=O)NC2(C(=O)O)C3CC4CC(C3)CC2C4)nn1-c1ccc(NCCCCCN(C)C)cc1C(C)C (stereo not shown) [II-3, 2-(5-(2,6-dimethoxyphenyl)-1-(4-((5-(dimethylamino)pentyl)amino)-2-isopropylphenyl)-1H-pyrazole-3-carboxamido)adamantane-2-carboxylic acid]
